The results in this text go back to patent US20210261561A1, “BICYCLIC HETEROCYCLE DERIVATIVES HAVING SELECTIVE BACE1 INHIBITORY ACTIVITY” (SHIONOGI & CO., LTD., priority 2018, published 2021).

Assay [1] deals with T1, BACE1 (Homo sapiens, UniProt P56817). Description: BACE1 biochemical FRET based assay (Test Example 2-1). The note with it: for selectivity: BACE2 IC50 over BACE1 IC50 (FRET); for IC50: FRET, 0.04 μg/mL BACE1, 450 minutes, Citrate buffer pH 5.0. From the text:
(§1) This assay is a Fluorescence Resonance Energy Transfer Assay (FRET) based assay. The substrate for this assay is an APP derived 13 amino acids peptide that contains the ‘Swedish’ Lys-Met/Asn-Leu mutation of the amyloid precursor protein (APP) beta-site secretase cleavage site. This substrate also contains two fluorophores: (7-methoxycoumarin-4-yl) acetic acid (Mca) is a fluorescent donor with excitation wavelength at 320 nm and emission at 405 nm and 2,4-dinitrophenol (Dnp) is a proprietary quencher acceptor. […] Upon cleavage by BACE1, the fluorophore Mca is separated from the quenching group Dnp, restoring the full fluorescence yield of the donor. The increase in fluorescence is linearly related to the rate of proteolysis.
(§2) Briefly in a 384-well format recombinant BACE1 protein in a final concentration of 0.04 μg/mL is incubated for 450 minutes at room temperature with […] substrate in incubation buffer (final concentrations: 33.3 mM Citrate buffer pH 5.0, 0.033% PEG, 3% DMSO) in the absence or presence of compound. Next the amount of proteolysis is directly measured by fluorescence measurement at T=0′-120′ and T=450′ (excitation at 320 nm and emission at 405 nm). Results are expressed in RFU (Relative Fluorescence Units), as difference between T450 and Tx (Tx is chosen depending on the reaction speed between 0 and 120 minutes.).
A best-fit curve is fitted by a minimum sum of squares method to the plot of % Controlmin versus compound concentration. From this an IC50 value (inhibitory concentration causing 50% inhibition of activity) can be obtained.

For assay [2], the target named is T2, BACE2 (Homo sapiens, UniProt Q9Y5Z0).
T2 sequence (Q9Y5Z0 63-518): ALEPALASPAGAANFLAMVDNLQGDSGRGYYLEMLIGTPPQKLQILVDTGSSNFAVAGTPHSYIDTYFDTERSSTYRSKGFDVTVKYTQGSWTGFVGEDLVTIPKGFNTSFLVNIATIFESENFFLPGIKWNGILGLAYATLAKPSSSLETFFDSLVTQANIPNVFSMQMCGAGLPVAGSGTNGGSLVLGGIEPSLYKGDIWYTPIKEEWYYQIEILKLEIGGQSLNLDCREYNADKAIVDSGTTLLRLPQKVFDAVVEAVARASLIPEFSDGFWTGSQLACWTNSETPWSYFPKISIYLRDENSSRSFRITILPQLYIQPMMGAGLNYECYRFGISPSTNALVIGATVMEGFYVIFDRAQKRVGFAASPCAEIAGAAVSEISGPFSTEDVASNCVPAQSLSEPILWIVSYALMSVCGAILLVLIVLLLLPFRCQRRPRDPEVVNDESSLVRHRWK
Kind of assay: BACE2 biochemical FRET based assay (Test Example 2-1 (2)). The note with it: 0.4 μg/mL BACE2, 450 minutes, Citrate buffer pH 5.0. The text has this: This assay is a Fluorescence Resonance Energy Transfer Assay (FRET) based assay. The substrate for this assay contains the ‘Swedish’ Lys-Met/Asn-Leu mutation of the amyloid precursor protein (APP) beta-secretase cleavage site. This substrate also contains two fluorophores: (7-methoxycoumarin-4-yl) acetic acid (Mca) is a fluorescent donor with excitation wavelength at 320 nm and emission at 405 nm and 2,4-dinitrophenol (Dnp) is a proprietary quencher acceptor. […] Upon cleavage by the beta-secretase, the fluorophore Mca is separated from the quenching group Dnp, restoring the full fluorescence yield of the donor. The increase in fluorescence is linearly related to the rate of proteolysis. Briefly in a 384-well format recombinant BACE2 protein in a final concentration of 0.4 μg/mL was incubated for 450 minutes at room temperature with 10 μM substrate in incubation buffer (final concentrations: 33.3 mM Citrate buffer pH 5.0, 0.033% PEG, 2% DMSO) in the absence or presence of compound. Next the amount of proteolysis was directly measured by fluorescence measurement at T=0 and T=450 (excitation at 320 nm and emission at 405 nm). Results were expressed in RFU (Relative Fluorescence Units), as difference between T450 and TO.
A best-fit curve was fitted by a minimum sum of squares method to the plot of % Controlmin versus compound concentration. From this an IC50 value (inhibitory concentration causing 50% inhibition of activity) can be obtained.

The target in assay [3] is T1, BACE1. Kind of assay: BACE1 cellular αLisa assay in SKNBE2 cells, Abeta 1-42 (Test Example 2-3). Format: cell-based. Further details: endogenous in cells; host or cells: SKNBE2 human neuroblastoma cells expressing hAPP695. The note with it: SKNBE2 cells expressing hAPP695, 18 hours incubation, read-out: Cellular αLisa assay in SKNBE2 cells Abeta 42 pIC50 (converted). As to the method:
In two αLisa assays the levels of Abeta 1-42 or Abeta total produced and secreted into the medium of human neuroblastoma SKNBE2 cells are quantified. The assays are based on the human neuroblastoma SKNBE2 expressing the wild type Amyloid Precursor Protein (hAPP695). The compounds are diluted and added to these cells, incubated for 18 hours and then measurements of Abeta 1-42 or Abeta total are taken. Abeta 1-42 or Abeta total are measured by sandwich αLisa using biotinylated antibody AbN/25 attached to streptavidin coated donor beads and antibody cAb42/26 or Ab 4G8 conjugated acceptor beads for the detection of Abeta 1-42 or Abeta total respectively. In the presence of Abeta 1-42 or Abeta total, the beads come into close proximity. The excitation of the donor beads provokes the release of singlet oxygen molecules that trigger a cascade of energy transfer in the acceptor beads, resulting in light emission. Light emission is measured after 1 h incubation (excitation at […] and emission at 615 nm).
(§3) Data are analysed using Screener (Registered trademark) (Genedata, Switzerland). Data were normalized and % inhibition=100−[(sample−LC)/(HC−LC))*100], was plotted versus the log concentration of the test compound. Curves were analysed using non-linear regression analysis and IC50 values (inhibitory concentration causing 50% inhibition of activity) were derived from individual curves.
LC=Median of the low control values • =Low control: Reaction without enzyme
HC=Median of the High control values • =High Control: Reaction with enzyme
(§4) % Inhibition=100−[(sample−LC)/(HC−LC)*100]

Assay [4] concerns the target T3, BACE2 (Mus musculus, UniProt Q9JL18).
T3 construct: endogenous in cells; host or cells: MIN6 mouse insulinoma cells expressing Flag-V5-TMEM27-HA
T3 sequence (Q9JL18 63-514): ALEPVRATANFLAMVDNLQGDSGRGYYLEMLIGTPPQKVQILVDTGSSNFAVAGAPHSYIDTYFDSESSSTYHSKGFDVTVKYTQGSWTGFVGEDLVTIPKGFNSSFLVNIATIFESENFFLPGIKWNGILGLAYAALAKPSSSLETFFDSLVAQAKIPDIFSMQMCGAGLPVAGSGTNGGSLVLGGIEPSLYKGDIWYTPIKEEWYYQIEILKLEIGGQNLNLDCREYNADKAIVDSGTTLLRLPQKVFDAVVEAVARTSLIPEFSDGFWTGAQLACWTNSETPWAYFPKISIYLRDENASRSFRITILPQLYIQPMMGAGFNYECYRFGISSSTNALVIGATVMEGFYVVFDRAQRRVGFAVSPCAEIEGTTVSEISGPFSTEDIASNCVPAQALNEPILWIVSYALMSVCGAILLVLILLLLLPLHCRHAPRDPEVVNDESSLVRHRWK
Description: BACE2 cellular assay in MIN6 cells, secreted TMEM27 (Test Example 2-5). Format: cell-based. The note with it: 24 hours incubation, secreted TMEM27 by MSD, read-out: Cellular MSD assay in Min6 cells TV1EV127 pIC50 (converted). As to the method: Cellular BACE2 activity was measured by determination of the level of secreted TMEM27 into the medium of MIN6 cells using an MSD platform. The assay is based on the mouse insulinoma MIN6 cells expressing Flag-V5-TMEM27-HA. When BACE2 cleaves TMEM27 the N-terminal part of TMEM27 with the V5-Flag tag will be shed into the medium, and the amount of this cleaved product is measured with the MSD assay.
Briefly in a 96-well format the cells are incubated for 24 hours in the presence of the compound followed by the measurement of secreted TMEM27 in the medium via MSD using FLAG-L5 coating antibody and a V5 detection antibody. When TMEM27 is captured on the electrode surface of the multi-array microplate the detection antibody, conjugated with the sulfo-Tag™, is in close proximity of the surface, it generates a light via a series of reduction and oxidation reactions. The intensity of the emitted light is measured with the MSD imager to provide a quantitative measure for the analytes in the sample.
as §3
(§5) LC=Median of the low control values
(§6) =Low control: Reaction without enzyme
(§7) HC=Median of the High control values
(§8) =High Control: Reaction with enzyme
as §4

The target in assay [5] is T2, BACE2. Description: BACE2 biochemical FRET based assay (Test Example 2-4). The note with it: recombinant BACE2 0.4 μg/mL, 10 μM substrate, 450 minutes, pH 5.0; read-out: BACE2 Biochemical FRET based assay pIC50 (converted).
From the text: as §1, with “assay” for “assay is an APP derived 13 amino acids peptide that”, “beta-secretase” for “beta-site secretase”, “the beta-secretase,” for “BACE1,”
Briefly in a 384-well format recombinant BACE2 protein in a final concentration of 0.4 μg/mL is incubated for 450 minutes at room temperature with 10 μM substrate in incubation buffer (final concentrations: 33.3 mM Citrate buffer pH 5.0, 0.033% PEG, 2% DMSO) in the absence or presence of compound. Next the amount of proteolysis is directly measured by fluorescence measurement at T=0 and T=450 (excitation at 320 nm and emission at 405 nm). Results are expressed in RFU (Relative Fluorescence Units), as difference between T450 and TO.
as §3, §5, §6, §7, §8, §4

In assay [6] the target is T1, BACE1. Kind of assay: BACE1 biochemical FRET based assay - Method 1 (Test Example 2-2). The note with it: 0.04 μg/mL BACE1, 450 minutes, Citrate buffer pH 5.0, read-out: BACE1 Biochemical FRET based assay - Method 1 PIC50 (converted).
From the text: as §1, §2, §3, §5, §6, §7, §8, §4

T1 sequence (P56817 46-501): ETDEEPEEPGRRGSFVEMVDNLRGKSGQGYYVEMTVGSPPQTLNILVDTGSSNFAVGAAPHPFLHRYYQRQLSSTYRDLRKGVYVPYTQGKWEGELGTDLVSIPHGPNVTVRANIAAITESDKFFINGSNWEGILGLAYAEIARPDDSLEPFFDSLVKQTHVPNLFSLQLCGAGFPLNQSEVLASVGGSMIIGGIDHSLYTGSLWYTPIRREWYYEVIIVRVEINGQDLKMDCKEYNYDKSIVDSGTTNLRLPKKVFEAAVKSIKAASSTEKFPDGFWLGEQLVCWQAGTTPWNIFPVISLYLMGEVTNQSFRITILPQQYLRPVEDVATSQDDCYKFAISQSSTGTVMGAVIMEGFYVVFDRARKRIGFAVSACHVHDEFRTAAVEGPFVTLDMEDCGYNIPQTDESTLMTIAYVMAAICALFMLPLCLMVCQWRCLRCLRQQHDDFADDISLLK

Turning to `Cn1cc([C@@H]2OC[C@H]3OC(N)=N[C@](C)(c4cc(NC(=O)c5cc6c(cn5)OCCO6)ccc4F)[C@H]32)cn1` [Compound I-032], in assay [1], the selectivity came to 112 and the IC50 was found to be 89.1 nM. The same compound returned an IC50 in assay [2] of 10000 nM.
As to `NC1=N[C@](CF)(c2cc(NC(=O)c3cc4c(cn3)OCCO4)ccc2F)[C@H]2COCC[C@H]2O1` [Compound I-033], in assay [1], the selectivity amounted to 447 and the IC50 stood at 6.92 nM. In addition, the IC50 in assay [2] was 3090 nM.
Consider `NC1=N[C@](CF)(c2cc(NC(=O)c3cc4c(cn3)OC[C@H](F)O4)ccc2F)[C@H]2COCC[C@H]2O1` [Compound I-037], for which, in assay [1], the selectivity stood at 263 and the IC50 is 20.9 nM. The same compound displayed an IC50 in assay [2] of 5500 nM.
The corresponding values for `C[C@H]1OC[C@H]2OC(N)=N[C@](CF)(c3cc(NC(=O)c4cc5c(cn4)OC(F)(F)CO5)ccc3F)[C@@H]12` [Compound I-039] are 218, 2.24 nM and 490 nM.
The corresponding values for `CC[C@@H]1OC[C@H]2OC(N)=N[C@](CF)(c3cc(NC(=O)c4cc5c(cn4)OC(F)(F)CO5)ccc3F)[C@@H]12` [Compound I-040] are 257, 7.94 nM and 2040 nM.
The corresponding values for `NC1=N[C@](CF)(c2cc(NC(=O)c3cc4c(cn3)OC(F)(F)CO4)ccc2F)[C@H]2OCC[C@H]2O1` [Compound I-043] are 234, 9.77 nM and 2290 nM.
Regarding `C[C@@H]1OC[C@H]2OC(N)=N[C@](CF)(c3cc(NC(=O)c4cc5c(cn4)OC(F)(F)CO5)ccc3F)[C@@H]12` [Compound I-044], in assay [1], the selectivity is listed as 131 and the IC50 was 14.5 nM. In assay [2], this compound returned an IC50 of 1910 nM.
The corresponding values for `C[C@H]1OC[C@H]2[C@@H]1OC(N)=N[C@]2(CF)c1cc(NC(=O)c2cc3c(cn2)OC(F)(F)O3)ccc1F` [Compound I-050] are 199, 5.37 nM and 1070 nM.
The corresponding values for `C[C@@H]1C[C@H]2OC(N)=N[C@](CF)(c3cc(NC(=O)c4cc5c(cn4)OCCO5)ccc3F)[C@H]2CO1` [Compound I-054] are 646, 9.33 nM and 6030 nM.
The corresponding values for `NC1=N[C@](CF)(c2cc(NC(=O)c3cc4c(cn3)OC(F)(F)CO4)ccc2F)[C@H]2CO[C@H](CF)C[C@H]2O1` [Compound I-057] are 389, 2.57 nM and 1000 nM.
With `CC1(S(C)(=O)=O)CCC(CF)(c2cc(NC(=O)c3cc4c(cn3)OCC(F)O4)ccc2F)N=C1N` (centres unmarked) [II-11], the IC50 was 3.55 nM in assay [3], 363 nM in assay [4], 331 nM in assay [5] and 6.46 nM in assay [6].
For the compound `[2H]C1([2H])Oc2cnc(C(=O)Nc3ccc(F)c(C4(CF)CCC(C)(S(C)(=O)=O)C(N)=N4)c3)c(F)c2OC1([2H])[2H]` (centres unmarked) [II-12], the IC50 in assay [3] was 2.57 nM; in assay [4], 661 nM; in assay [5] it was 372 nM; in assay [6] it was 4.07 nM.
